Assay results reported in ChEMBL document CHEMBL1133412, “Rational design, synthesis and structure-activity relationships of antitumor (E)-2-benzylidene-1-tetralones and (E)-2-benzylidene-1-indanones” (Bioorg Med Chem Lett, 2000).
pIC50: −log10 of the molar value.

Experiments:
A549 = test: Cytotoxicity evaluated against A549 tumor cell lines; significant activity; assay type: functional, cell-based; details: Homo sapiens
B16 = test: Cytotoxicity was evaluated against B16 tumor cell lines; Significant activity; assay type: functional, cell-based; details: Mus musculus
CCRF-CEM = test: Cytotoxicity evaluated against CEM tumor cell lines; Significant activity; assay type: functional, cell-based; details: Homo sapiens
NCI-H596 = test: Cytotoxicity evaluated against H596 tumor cell lines; Significant activity; assay type: functional, cell-based; details: Homo sapiens
NCI-H292 = test: Cytotoxicity evaluated against H292 tumor cell lines; Significant activity; assay type: functional, cell-based; details: Homo sapiens
HL-60 = test: Cytotoxicity evaluated against HL-60 tumor cell lines; Significant activity; assay type: functional, cell-based; details: Homo sapiens
Jurkat = test: In vitro test for antitumor activity against human Jurkat cell line using a formazan dye (MTT) conversion assay.; assay type: functional, cell-based
K562 = test: Cytotoxicity evaluated against K562 tumor cell lines; Significant activity; assay type: functional, cell-based; details: Homo sapiens
L1210 = test: Cytotoxicity evaluated against L1210 tumor cell lines; Significant activity; assay type: functional, cell-based; details: Mus musculus
MCF7 = test: Cytotoxicity evaluated against MCF-7 tumor cell lines; Significant activity; assay type: functional, cell-based; details: Homo sapiens
MOLT-4 = test: Cytotoxicity was evaluated against Molt-4 tumor cell lines; assay type: functional, cell-based; details: Homo sapiens
NIH3T3 = test: Cytotoxicity evaluated against NIH3T3 tumor cell lines; Significant activity; assay type: functional, cell-based; details: Mus musculus
Tumor cell line = test: In vivo testing against tumor cells that were placed in the polyvinylidene fluoride (PVDF) hollow fibers of capsules and then implanted in to mice intraperitoneally or subcutaneously; assay type: functional, Mus musculus
WI-38 [1] = test: Cytotoxicity evaluated against WI38 tumor cell lines; Significant activity; assay type: functional, cell-based; details: Homo sapiens
WIL2 = test: Cytotoxicity evaluated against WIL2 tumor cell lines; Significant activity; assay type: functional, cell-based; details: Homo sapiens
WI-38 [2] = test: Cytotoxicity was evaluated against WI38 tumor cell lines; Significant activity; assay type: functional, cell-based; details: Homo sapiens

SMILES | Cytotoxicity (A549) | Cytotoxicity (B16) | Cytotoxicity (CCRF-CEM) | Cytotoxicity (NCI-H596) | Cytotoxicity (NCI-H292) | Cytotoxicity (HL-60) | pIC50 (Jurkat) | Cytotoxicity (K562) | Cytotoxicity (L1210) | Cytotoxicity (MCF7) | Cytotoxicity (MOLT-4) | Cytotoxicity (NIH3T3) | IP+SC score (Tumor cell line) | Cytotoxicity (WI-38 [1]) | Cytotoxicity (WIL2) | Cytotoxicity (WI-38 [2])
COc1cc2c(cc1OC)C(=O)/C(=C/c1cc(Cl)cc(Cl)c1)C2 | Significant activity | Significant activity | Significant activity | Significant activity | Significant activity | Significant activity | 5.70 | Significant activity | Significant activity | Significant activity | Significant activity | Significant activity | <20 | Significant activity | Significant activity | 
COc1cc2c(c(N)c1OC)C(=O)/C(=C/c1cc(C)c(O)c(C)c1)C2 | Significant activity | Significant activity | Significant activity | Significant activity | Significant activity | Significant activity | 8.40 | Significant activity | Significant activity | Significant activity | Significant activity | Significant activity | >20 | Significant activity | Significant activity | 
COc1cc2c(cc1OC)C(=O)/C(=C/c1cc(C)c(O)c(C)c1)C2 | Significant activity | Significant activity | Significant activity | Significant activity | Significant activity | Significant activity | 8.22 | Significant activity | Significant activity | Significant activity | Significant activity | Significant activity | >20 | Significant activity | Significant activity | 
COc1cccc(/C=C2\CCc3cc(OC)c(OC)cc3C2=O)c1 | Significant activity | Significant activity | Significant activity | Significant activity | Significant activity | Significant activity | 5.30 | Significant activity | Significant activity | Significant activity | Significant activity | Significant activity |  |  | Significant activity | Significant activity
COc1cc2c(c([N+](=O)[O-])c1O)C/C(=C\c1cc(C)c(O)c(C)c1)C2=O | Significant activity | Significant activity | Significant activity | Significant activity | Significant activity | Significant activity | 5.03 | Significant activity | Significant activity | Significant activity | Significant activity | Significant activity |  |  | Significant activity | Significant activity
COc1cc(/C=C2\Cc3cc(OC)c(OC)cc3C2=O)cc(OC)c1 | Significant activity | Significant activity | Significant activity | Significant activity | Significant activity | Significant activity | 5.52 | Significant activity | Significant activity | Significant activity | Significant activity | Significant activity | <20 | Significant activity | Significant activity | 
